Results: the METLIN SMRT retention time set (Domingo-Almenara et al. 2019)

Assay: gradient 5% acetonitrile 3 min, to 50% in 2 min, to 85% in 15 min, held 3 min, 100 µL/min
Conditions: column: Zorbax Extend-C18 2.1 x 50 mm; eluents: water / acetonitrile, 0.1% formic acid
Outline: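 Mixtures of ~100 pure standards were chromatographed on a Zorbax Extend-C18 column (2.1 × 50 mm, 1.8 μm) at 100 μL/min using water and acetonitrile, each with 0.1% formic acid. Detection used a quadrupole time-of-flight mass spectrometer in positive and negative ionization mode, and data collection spanned 3 months. Retention time was obtained from adduct peaks picked computationally and each checked manually.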

Cc1cc(C)cc(-n2ccn(Cc3nc(-c4ccc(F)cc4)no3)c(=O)c2=O)c1
RP-LC retention time: 884 s

O=c1n(Cc2ccc(F)cc2)nc2ccc(S(=O)(=O)N3CCCCC3)cn12
RP-LC retention time: 923 s

CCOc1ccc(-c2cc(=O)n(CCCC(=O)N3CCN(S(C)(=O)=O)CC3)cn2)cc1
RP-LC retention time: 680 s

CCc1noc(NC(C)=O)c1-c1ccc(C)c(S(=O)(=O)NCc2ccccc2OC)c1
RP-LC retention time: 827 s

CCOC(=O)c1ccc(NC(=O)CC2COc3ccccc3NC2=O)cc1 (stereo not drawn)
RP-LC retention time: 596 s

CCCCN1C(=O)C(C)(C(=O)N2CCN(c3ccccc3F)CC2)Oc2cccnc21 (stereo not drawn)
RP-LC retention time: 1190 s

Cc1ccc(-c2nc(-c3ccc4c(c3)ncn4CCN3CCOCC3)no2)cc1C
RP-LC retention time: 685 s

Cn1nc(-c2nc(-c3ccccc3F)no2)c2c1CCN(C(=O)C1CCCO1)C2 (stereo not drawn)
RP-LC retention time: 770 s

O=C1CC(c2nc3ccccc3n2CCN2CCOCC2)CN1Cc1ccc(F)cc1 (stereo not drawn)
RP-LC retention time: 612 s

Cc1cc(C)cc(NC(=O)Cn2cc(-c3noc(-c4ccncc4)n3)nc2C)c1
RP-LC retention time: 735 s

Cc1cc(NC(=O)CSc2nnc(C(C)C)c3cnn(-c4ccc(C)c(C)c4)c23)no1
RP-LC retention time: 845 s

O=C(NCCCn1c(-c2ccncc2)nc2cccnc21)Nc1ccc(Br)cc1F
RP-LC retention time: 718 s

Cc1cc(-c2nnc(-c3ccccc3)o2)c(C)n1CC(=O)NCc1ccccc1
RP-LC retention time: 903 s

CCCn1cc(C(=O)NCC(C)C)c(S(=O)(=O)N2CCN(c3ccccc3OCC)CC2)n1
RP-LC retention time: 1180 s

O=C(NCc1ccccc1)C1CCCN(c2nc3ccsc3c(=O)n2Cc2ccc(F)cc2)C1 (stereo not drawn)
RP-LC retention time: 943 s

CC(C)OC(=O)Cn1nc2ccc(S(=O)(=O)N3CCSCC3)cn2c1=O
RP-LC retention time: 829 s

Cc1ccc(-c2nnc(CC(=O)NC(C)CCc3ccccc3)o2)cc1 (stereo not drawn)
RP-LC retention time: 840 s

O=C(C1CCCN(c2ncnc3c2nc2n3CCCCC2)C1)N1CCCCCC1 (stereo not drawn)
RP-LC retention time: 766 s

Cc1ccc(CNC(=O)c2ccc3c(=O)n(-c4ccccc4)c(N4CCCC4)nc3c2)o1
RP-LC retention time: 830 s

COc1ccc(-c2noc(C3CCN(CC(=O)Nc4ccc5c(c4)OCO5)CC3)n2)cc1
RP-LC retention time: 703 s

CCN1CCC2(CC1)N=C(c1ccc(F)cc1)CC(c1cccc(OC)c1O)N2 (stereo not drawn)
RP-LC retention time: 592 s

O=C(NCc1ccc(Cl)cc1)c1ccc(NC(=O)C2CCC2)cc1N1CCOCC1
RP-LC retention time: 896 s

COc1ccc(CNC2=NCCNC23CCN(S(=O)(=O)c2ccc(C(C)(C)C)cc2)CC3)cc1
RP-LC retention time: 844 s

COc1ccc(C(=O)N2CCc3cc(-c4csc(C)n4)ccc32)c(OC)c1
RP-LC retention time: 965 s

CCn1cc(-c2nc(C)c(C(=O)Nc3ccc(F)c(F)c3)s2)c2cccnc21
RP-LC retention time: 1070 s

COc1ccccc1-c1nc(C2CC(=O)N(c3ccc(Cl)cc3)C2)no1 (stereo not drawn)
RP-LC retention time: 1020 s

O=C(c1c(F)cccc1F)N1CCN=C1N1CCCCC1
RP-LC retention time: 623 s

Cc1ccc(C(=O)Nc2ccc3c(c2)Sc2ncccc2C(=O)N3C(C)C)c(C)c1
RP-LC retention time: 962 s

Cc1ccc(S(=O)(=O)N2CCC(CCNC(=O)NC3CCCC3)CC2)cc1
RP-LC retention time: 894 s

CCN1CCN(c2ccc(-c3nc(-c4ccccc4)no3)cn2)CC1
RP-LC retention time: 675 s

Cc1noc(C)c1Cc1c(C(=O)NCCn2c(C)cnc2C)noc1C
RP-LC retention time: 601 s

Cn1c(SCC(=O)Nc2nc(-c3ccccc3)cs2)nnc1-c1cc2ccccc2o1
RP-LC retention time: 961 s

CCN1C(=O)c2ccccc2Sc2cc(-c3noc(CNC(=O)c4cccs4)n3)ccc21
RP-LC retention time: 917 s

CCOc1ccc(C(=O)NCc2noc(-c3cccc(Cl)c3)n2)cc1
RP-LC retention time: 963 s

CCCCNC(=O)CCc1c(C)n(CC)c2nc(-c3ccccc3)nn2c1=O
RP-LC retention time: 796 s

Cc1nc(-c2ccc(F)cc2)sc1C(=O)N(C)C
RP-LC retention time: 767 s

CCCNC(=O)N1CCCC(C)(C(=O)NCc2ccc(C)cc2)C1 (stereo not drawn)
RP-LC retention time: 799 s

CCN1c2ccccc2C(=O)NC12CCN(C(=O)Cc1ccccc1C)CC2
RP-LC retention time: 849 s

CC(C)CCN1C(=O)CC[C@]2(C(=O)N3CCN(c4ccc(F)cc4)CC3)CCCC[C@@H]12
RP-LC retention time: 1010 s

COc1cc(CC(=O)N2CCN(c3cc(C)n4c(C)nnc4n3)CC2)cc(OC)c1
RP-LC retention time: 576 s

CCc1ccc2c(c1)cc(S(=O)(=O)c1ccccc1)c(=O)n2CC(=O)NC1CCCCC1
RP-LC retention time: 1030 s

COc1ncc(C(=O)N2CCc3ccccc3C2)cn1
RP-LC retention time: 729 s

CN(C)S(=O)(=O)c1ccc(C(=O)N2Cc3nn(C(C)(C)C)c(-n4cccc4)c3C2)cc1
RP-LC retention time: 888 s
